One data set is described as follows: PAMPA permeability. Format: in vitro ADME.
For data set [1] the following is noted: preclinical data; cited from earlier work.
Data set [2] in a line: Test article handling / stability information. Format: physicochemical. The note with it: room temp.
The subject of a further data set is six-week-old B6 mice. The data set is described as follows: Noise-induced hearing loss in mice after moderate noise exposure (ABR thresholds, IHC synaptic ribbons), orally administered compound. The format is in vivo, mouse. The text has this:
FIGS. 9A-9C depict that Compound 1 administration is protective against mid- to high-frequency hearing loss and synaptic ribbon loss. (A) Threshold elevation two-weeks after moderate noise exposure is reduced in six-week-old B6 mice treated with orally administered Compound 1 either prior or after noise exposure. […] (C) Quantification of paired synaptic ribbons in mice two weeks after exposure to moderate noise given vehicle (top row) and Compound 1 (bottom row). (n=4; scale bar=[…]).
Inducing NIHL in mice. To induce NIHL, mice are exposed to octave band noise (OBN) with a center frequency of 10 kHz for 2 hours using a method adapted from Kujawa, Sharon G., and M. Charles Liberman. “Adding insult to injury: cochlear nerve degeneration after “temporary” noise-induced hearing loss.” Journal of Neuroscience 29.45 (2009): 14077-14085., which is incorporated herein by reference in its entirety.
There has been increasing interest in AMPK activation in human disease. […] The activation pathways and downstream targets of AMPK differ depending on its subcellular localization (FIG. 8C). In response to energy stress, LKB1 activates cytoplasmic and lysosomal AMPK in an axin-dependent manner as exemplified by phosphorylation of the AMPK target ACC1, whereas it activates mitochondrial AMPK in an axin-independent manner as exemplified by phosphorylation of the AMPK target ACC2. […]

Data set [3] in a line: Concentration in perilymph and plasma following intratympanic dosing in two mouse strains (LC-MS/MS). Format: in vivo, C57BL/6J and FVB mice. Conditions: 5 μL of 5 mg/mL in 5% DMSO-95% Poloxamer 407 solution, all plasma data points except one. As for the experimental part:
Compound 1 was dissolved DMSO and added to a cold solution of 20% Poloxamer 407 in PBS. The mixture was vortexed to give a solution of final solution of 5 mg/mL Compound 1 in 5% DMSO-95% Poloxamer 407 solution.
In fully anesthetized mice, the mouse bulla was reached through the digastric and sternocleidomastoid muscles and a 27-gauge needle was used to drill an opening adjacent to the round window niche. 5 μL of Compound 1 in the cold 5%/95% DMSO/Poloxamer 407 hydrogel vehicle was introduced by intratympanic injection in both C57BL/6J and FVB mice. Upon reaching the desired time point, mice were euthanized under deep anesthesia. Blood from the heart was collected to determine drug plasma levels. The mouse bulla was re-exposed to verify the injection site and all possible drug remaining were removed from inner ear before collecting the perilymph from the apical side of the cochlea.
Drug levels were measured using LC-MS/MS (Q-trap) with 500 nM indomethacin as the internal standard. Perilymph samples were diluted 10× in plasma. An aliquot of 1 μL sample was protein precipitated with 50 μL IS, the mixture was vortex-mixed well and centrifuged at 3600 rpm for 10 min, Room Temp. 10 μL supernatant was injected for LC-MS/MS analysis. […]

The subject of a further data set is AMPK. Put plainly: AMPK activation in inner and outer hair cells of treated mice. The format is in vivo, mouse. From the text:
There has been increasing interest in AMPK activation in human disease. […] The activation pathways and downstream targets of AMPK differ depending on its subcellular localization (FIG. 8C). In response to energy stress, LKB1 activates cytoplasmic and lysosomal AMPK in an axin-dependent manner as exemplified by phosphorylation of the AMPK target ACC1, whereas it activates mitochondrial AMPK in an axin-independent manner as exemplified by phosphorylation of the AMPK target ACC2. By contrast, activation of nuclear AMPK in response to elevated intracellular Ca^2+ levels are mediated by CaMKK2. For the observed noise-induced activation of nuclear AMPK in IHCs, in the absence of which (γ2 deficiency) mice suffer greater synaptic ribbon morphometric changes and NIHL (FIGS. 3A-3D & 4A-4E), AMPK may be activated by CaMKK2, especially given that physiological sound relay to the auditory nerve in IHCs involves transient Ca2+ elevation.

For data set [4] the following is noted: analysis of known AMPK activators; cited from earlier work.
A short description of data set [5]: Drug distribution of Compound 1 in mouse plasma, brain and perilymph after oral dosing. The format is in vivo. The note with it: 2 h after a 300 mg/kg p.o. dose. How it is done:
Complete ADME and PK assessment of Compound 1 and Compound 2 at several doses by oral and intratympanic (IT) dosing in wild-type mice and in transgenic efflux-pump knock-out mice to benchmark compound exposure. […] Drug distribution of Compound 1 in a mouse was determined after dosing at 300 mg/kg.

Read-outs that look alike come from different tables or passages of the source.

In the case of `O[C@@H]1CO[C@H]2[C@@H]1OC[C@H]2Oc1nc2nc(-c3ccc(-c4ccccc4)cc3)c(Cl)cc2[nH]1` [Compound 1, (3R,3aR,6R,6aR)-6-((5-([1,1′-biphenyl]-4-yl)-6-chloro-3H-imidazo[4,5-b]pyridin-2-yl)oxy)hexahydrofuro[3,2-b]furan-3-ol], the apparent permeability (Papp) – broadly, the rate of passage across a membrane or cell layer, normalised by area and donor concentration – in the data set “PAMPA permeability” was 24 ×10⁻⁶ cm/s. The “Effect on glucose homeostasis” value in data set [1] is listed as “improve glucose homeostasis”. Also, the “Stability of test article” value in data set [2] is listed as “Compound 1 stable at room temp”. Also, the “ABR threshold elevation two weeks after moderate noise exposure” value in the data set with six-week-old B6 mice (orally administered either prior or after noise exposure, six-week-old B6 mice) is recorded as “reduced”. Besides, the “IHC (32 kHz region) synaptic ribbon counts after moderate noise exposure” value in the data set on six-week-old B6 mice (two weeks after exposure to moderate noise, vs vehicle, n=4) was “preservation”. Besides, the “Plasma concentration following intratympanic dosing” value in data set [3] was “below the level of detection”. In the data set with AMPK, the “AMPK activation in hair cells” value is “nuclear and cytoplasmic activation of AMPK in both inner and outer hair cells”. Also, the “Passive permeability (in words)” value in data set [4] was “high passive permeability”. In addition, the concentration at 2 h in data set [5] (brain, read-out: Brain level of Compound 1) turned out to be 45 ± 5 µM; in data set [5] (perilymph, read-out: Perilymph level of Compound 1) it was 0.87 ± 0.04 µM; in data set [5] (plasma, read-out: Plasma level of Compound 1), 443 ± 64 µM.

The record behind these values is patent US20240180882A1, “COMPOUNDS FOR PROTECTION OF NOISE-INDUCED HEARING-LOSS” (The Regents of the University of California, priority 2021, published 2024).
